Source: ChEMBL document CHEMBL1201862, “PubChem BioAssay data set” (2004)
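Step 1: Grow cells in 96-well plates. Step 2: Expose to compound for 48 hours at 5 concentrations. Step 3: Interpolate endpoints linearly; if unreached, use highest concentration. GI50: concentration for 50% inhibition of growth.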 Activity calls are given as the source filed them. No stated cut-off is given here; in the data, active = GI50 up to about 1.1 µM and inactive = higher.

Assays:
Assay in all cases: DTP human tumour cell line panel, 48 h
[1] = system: SNB-75
[2] = system: LOX IMVI
[3] = system: CAKI-1
[4] = system: OVCAR-5
[5] = system: UACC-62
[6] = system: HL-60
[7] = system: NCI-H522
[8] = system: SK-MEL-5
[9] = system: HCC 2998
[10] = system: KM12
[11] = system: HOP-92
[12] = system: IGROV-1
[13] = system: SF-539
[14] = system: UO-31
[15] = system: HT-29
[16] = system: HCT-116
[17] = system: HOP-62

| SMILES | GI50 [1] | GI50 [2] | GI50 [3] | GI50 [4] | GI50 [5] | GI50 [6] | GI50 [7] | GI50 [8] | GI50 [9] | GI50 [10] | GI50 [11] | GI50 [12] | GI50 [13] | GI50 [14] | GI50 [15] | GI50 [16] | GI50 [17] |
| --- | --- | --- | --- | --- | --- | --- | --- | --- | --- | --- | --- | --- | --- | --- | --- | --- | --- |
| c1coc(CNc2[nH]cnc3nncc2-3)c1 | 38.5 µM (inactive) | > 100 µM (inactive) | > 100 µM (inactive) | > 100 µM (inactive) | > 100 µM (inactive) | 87.9 µM (inactive) | > 100 µM (inactive) | > 100 µM (inactive) | > 100 µM (inactive) | > 100 µM (inactive) | 35.8 µM (inactive) | > 100 µM (inactive) | > 100 µM (inactive) | 70.3 µM (inactive) | > 100 µM (inactive) | > 100 µM (inactive) | > 100 µM (inactive) |
| O=c1[nH]ccc2c1ccn2C1CC(O)C(CO)O1 (stereo not drawn) | 46.5 µM (inactive) | > 100 µM (inactive) | > 100 µM (inactive) | > 100 µM (inactive) | > 100 µM (inactive) | > 100 µM (inactive) | > 100 µM (inactive) | > 100 µM (inactive) | > 100 µM (inactive) | > 100 µM (inactive) | > 100 µM (inactive) | > 100 µM (inactive) | > 100 µM (inactive) | > 100 µM (inactive) | > 100 µM (inactive) | > 100 µM (inactive) | > 100 µM (inactive) |
| COC(OC)c1cc2c(cc1C(=O)[C@@]13CCC[C@@H]1NC(=O)O3)OCO2 | 49 µM (inactive) |  | > 100 µM (inactive) | > 100 µM (inactive) | 34.1 µM (inactive) | > 100 µM (inactive) | > 100 µM (inactive) | 41.2 µM (inactive) |  | > 100 µM (inactive) | > 100 µM (inactive) | 73.5 µM (inactive) | > 100 µM (inactive) | 60.3 µM (inactive) | > 100 µM (inactive) | > 100 µM (inactive) | > 100 µM (inactive) |
| Cn1nc2ccccc2cc1=O | 59.2 µM (inactive) | > 100 µM (inactive) | > 100 µM (inactive) | > 100 µM (inactive) | > 100 µM (inactive) |  |  | > 100 µM (inactive) | > 100 µM (inactive) | > 100 µM (inactive) | > 100 µM (inactive) | > 100 µM (inactive) | > 100 µM (inactive) | > 100 µM (inactive) | > 100 µM (inactive) | > 100 µM (inactive) | > 100 µM (inactive) |
| c1ccc2[nH]c(CNc3ccc(C4C[Se]N=N4)cc3)nc2c1 (stereo not drawn) | 43.2 µM (inactive) | 40.6 µM (inactive) | > 100 µM (inactive) | > 100 µM (inactive) | 24.7 µM (inactive) | 28.2 µM (inactive) | 29 µM (inactive) | 15.1 µM (inactive) | > 100 µM (inactive) | 26.4 µM (inactive) | > 100 µM (inactive) | > 100 µM (inactive) | > 100 µM (inactive) | 38.9 µM (inactive) | > 100 µM (inactive) | 41.2 µM (inactive) | > 100 µM (inactive) |
| O=C(O)CC[C@H](NC(=O)c1ccc(-n2nc3ccc(=O)cc-3[nH]c2=O)cc1)C(=O)O |  |  |  | > 100 µM (inactive) | > 100 µM (inactive) | > 100 µM (inactive) | > 100 µM (inactive) | > 100 µM (inactive) | > 100 µM (inactive) | > 100 µM (inactive) | > 100 µM (inactive) | > 100 µM (inactive) | > 100 µM (inactive) | > 100 µM (inactive) | > 100 µM (inactive) | > 100 µM (inactive) | > 100 µM (inactive) |
| COC(=O)N/N=C(\C)CC(=O)Nc1ccc(Cl)cc1 | 98.6 µM (inactive) | > 100 µM (inactive) |  | > 100 µM (inactive) | > 100 µM (inactive) | > 100 µM (inactive) | 58.5 µM (inactive) | > 100 µM (inactive) | > 100 µM (inactive) | > 100 µM (inactive) | > 100 µM (inactive) | > 100 µM (inactive) | > 100 µM (inactive) | 67.3 µM (inactive) | > 100 µM (inactive) | > 100 µM (inactive) | > 100 µM (inactive) |
| CC(C)=CC(=O)c1c(C(=O)O)nc2ccccc2[n+]1[O-] | > 100 µM (inactive) | > 100 µM (inactive) | > 100 µM (inactive) | > 100 µM (inactive) | > 100 µM (inactive) | > 100 µM (inactive) |  | > 100 µM (inactive) | > 100 µM (inactive) | > 100 µM (inactive) | > 100 µM (inactive) | > 100 µM (inactive) | > 100 µM (inactive) | > 100 µM (inactive) | > 100 µM (inactive) | > 100 µM (inactive) | > 100 µM (inactive) |
| CC1OC(n2cc(F)c(=O)[nH]c2=O)CCC1=O (stereo not drawn) | > 100 µM (inactive) | 88.1 µM (inactive) | > 100 µM (inactive) | > 100 µM (inactive) | > 100 µM (inactive) | 74.6 µM (inactive) | > 100 µM (inactive) | > 100 µM (inactive) | 5.98 µM (inactive) | 92.9 µM (inactive) | > 100 µM (inactive) | > 100 µM (inactive) | 10.4 µM (inactive) | 71.8 µM (inactive) | 91 µM (inactive) | 44.9 µM (inactive) | 50.8 µM (inactive) |
| COc1cccc(OC)c1/C=N\N1C(=O)c2ccccc2C1=O | 38.5 µM (inactive) | 58.5 µM (inactive) | 38.5 µM (inactive) | > 100 µM (inactive) | 34.6 µM (inactive) | 33.9 µM (inactive) |  | 52.1 µM (inactive) | 29.5 µM (inactive) | 36.6 µM (inactive) | 47.2 µM (inactive) | 84.3 µM (inactive) | 24.3 µM (inactive) | 55.2 µM (inactive) | 35.5 µM (inactive) | 33.5 µM (inactive) | > 100 µM (inactive) |
| COc1ccc(N2C(=O)C3c4[nH]c5ccccc5c4C4CCC(C(C)(C)C)CC4C3C2=O)cc1OC (stereo not drawn) | 16.3 µM (inactive) |  |  |  | 63.4 µM (inactive) | 59.4 µM (inactive) | 15.4 µM (inactive) | 46.3 µM (inactive) | 48.8 µM (inactive) |  | 20.5 µM (inactive) | 33 µM (inactive) | 18.6 µM (inactive) | 34.4 µM (inactive) | 33.9 µM (inactive) | 16.1 µM (inactive) | 18 µM (inactive) |
| OC12CC/C(=N/OCc3ccccc3)CC1c1ccccc12 (stereo not drawn) | 39.7 µM (inactive) | > 100 µM (inactive) | > 100 µM (inactive) | > 100 µM (inactive) | > 100 µM (inactive) | > 100 µM (inactive) | > 100 µM (inactive) | > 100 µM (inactive) | > 100 µM (inactive) | > 100 µM (inactive) |  | > 100 µM (inactive) | > 100 µM (inactive) | > 100 µM (inactive) | > 100 µM (inactive) | > 100 µM (inactive) | > 100 µM (inactive) |
| CCOC(=O)c1cc(/C=C/C(C)=C/C(=O)OC)oc1-c1ccccc1 |  | > 100 µM (inactive) | 55.8 µM (inactive) | > 100 µM (inactive) | 41.3 µM (inactive) | 46.2 µM (inactive) | 39.7 µM (inactive) | > 100 µM (inactive) | > 100 µM (inactive) | 48.4 µM (inactive) |  | 66.7 µM (inactive) | 43.9 µM (inactive) | 35.4 µM (inactive) | > 100 µM (inactive) | 32.1 µM (inactive) |  |
| CCn1c2ccccc2c(=O)c2c(OC)ccc(OC)c21 |  | 36.1 µM (inactive) | 22.9 µM (inactive) | > 61.7 µM (inactive) | 43.6 µM (inactive) | 29.6 µM (inactive) | 20.6 µM (inactive) |  |  | 79.6 µM (inactive) | 39 µM (inactive) | 46.9 µM (inactive) | 68.1 µM (inactive) | 25.4 µM (inactive) | 64.3 µM (inactive) | 51.1 µM (inactive) | 54.3 µM (inactive) |
| COC(=O)/C(=C/CC(N=C(c1ccccc1)c1ccccc1)C(=O)OC)N=C(c1ccccc1)c1ccccc1 (stereo not drawn) | 12.4 µM (inactive) | > 100 µM (inactive) | > 100 µM (inactive) |  | > 100 µM (inactive) | > 100 µM (inactive) | 38.5 µM (inactive) | > 100 µM (inactive) | > 100 µM (inactive) | > 100 µM (inactive) |  | > 100 µM (inactive) |  | 45.9 µM (inactive) | > 100 µM (inactive) | > 100 µM (inactive) | > 100 µM (inactive) |
| CC1(C)COC2(OC1)C1=NS(=O)(=O)CC13CCC2C3(C)C (stereo not drawn) | > 100 µM (inactive) | > 100 µM (inactive) | > 100 µM (inactive) | > 100 µM (inactive) | > 100 µM (inactive) | > 100 µM (inactive) | > 100 µM (inactive) | > 100 µM (inactive) |  | > 100 µM (inactive) | > 100 µM (inactive) | > 100 µM (inactive) | > 100 µM (inactive) | > 100 µM (inactive) | > 100 µM (inactive) | > 100 µM (inactive) | > 100 µM (inactive) |
| CN(C)C(=Nc1nc(N(C)C)s[s+]1)N(C)C | > 100 µM (inactive) |  | > 100 µM (inactive) | > 100 µM (inactive) | > 100 µM (inactive) | > 100 µM (inactive) | > 100 µM (inactive) | > 100 µM (inactive) | > 100 µM (inactive) | > 100 µM (inactive) | > 100 µM (inactive) | > 100 µM (inactive) | > 100 µM (inactive) | > 100 µM (inactive) | > 100 µM (inactive) |  | > 100 µM (inactive) |
| Cc1ccc2[nH]c3c(C)c4c(c(C)c3c2c1)CN(C)C=C4 | 0.75 µM (active) | 3.93 µM (inactive) |  | 3.1 µM (inactive) | 1.62 µM (inactive) | 4.46 µM (inactive) | 0.152 µM (active) | 1.38 µM (inactive) | 1.52 µM (inactive) | 0.54 µM (active) | 1.07 µM (active) | 0.698 µM (active) | 0.393 µM (active) | 3.52 µM (inactive) | 2.46 µM (inactive) | 2.32 µM (inactive) | 0.743 µM (active) |
